Experimental data taken from ChEMBL document CHEMBL1201862, “PubChem BioAssay data set” (2004).
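Grown in 96-well plates, cells were treated for 48 hours with each compound at five concentrations. Insufficient inhibition: endpoint recorded as highest concentration tested. GI50 marks 50% less growth.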 The source made the active and inactive calls. Rule as the data show it: active = GI50 up to about 1.1 µM and inactive = higher.

Tests used:
Assay in all cases: inhibition of tumour cell growth, NCI panel, 48 h
CAKI-1 = test system: CAKI-1
HCT-116 = test system: HCT-116
HOP-62 = test system: HOP-62
KM12 = test system: KM12
NCI-H226 = test system: NCI-H226
NCI-H23 = test system: NCI-H23
NCI-H522 = test system: NCI-H522
OVCAR-4 = test system: OVCAR-4
RPMI-8226 = test system: RPMI-8226
RXF 393 = test system: RXF 393
SNB-19 = test system: SNB-19
SW-620 = test system: SW-620
UACC-257 = test system: UACC-257
UACC-62 = test system: UACC-62
UO-31 = test system: UO-31
SR = test system: SR

| SMILES | GI50 (CAKI-1) | GI50 (HCT-116) | GI50 (HOP-62) | GI50 (KM12) | GI50 (NCI-H226) | GI50 (NCI-H23) | GI50 (NCI-H522) | GI50 (OVCAR-4) | GI50 (RPMI-8226) | GI50 (RXF 393) | GI50 (SNB-19) | GI50 (SW-620) | GI50 (UACC-257) | GI50 (UACC-62) | GI50 (UO-31) | GI50 (SR) |
| --- | --- | --- | --- | --- | --- | --- | --- | --- | --- | --- | --- | --- | --- | --- | --- | --- |
| COc1cc([C@@H]2c3cc4c(cc3[C@@H](NC(=O)c3ccc([N+](=O)[O-])cc3)C3COC(=O)[C@@H]32)OCO4)cc(OC)c1O (stereo partly specified) | 0.569 µM (active) | 0.678 µM (active) | 0.128 µM (active) | 1.08 µM (active) | 0.104 µM (active) | 0.258 µM (active) | 0.508 µM (active) | 8.04 µM (inactive) | 0.256 µM (active) | 2.55 µM (inactive) | 0.315 µM (active) | 0.147 µM (active) | 3.16 µM (inactive) | 0.241 µM (active) | 2.63 µM (inactive) |  |
| Cc1nc2ccccc2c(=O)n1-c1ccccc1I | > 100 µM (inactive) | > 100 µM (inactive) | > 100 µM (inactive) |  | > 100 µM (inactive) | > 100 µM (inactive) | > 100 µM (inactive) | > 100 µM (inactive) | > 100 µM (inactive) |  | > 100 µM (inactive) | > 100 µM (inactive) | > 100 µM (inactive) | > 100 µM (inactive) | 90.2 µM (inactive) | > 100 µM (inactive) |
| CCO/C([O-])=C(\C(=O)c1ccc([N+](=O)[O-])cc1)[n+]1c(C)n(C)c2ccccc21 | > 100 µM (inactive) | > 100 µM (inactive) | > 100 µM (inactive) | > 100 µM (inactive) | > 100 µM (inactive) | > 100 µM (inactive) | > 100 µM (inactive) | > 100 µM (inactive) | > 100 µM (inactive) | > 100 µM (inactive) | > 100 µM (inactive) | > 100 µM (inactive) | > 100 µM (inactive) | > 100 µM (inactive) | > 100 µM (inactive) |  |
| COc1cc(/C=C/c2ccc(OC)c(O)c2)cc(OC)c1 | 25.5 µM (inactive) | 3.4 µM (inactive) | 4.2 µM (inactive) | 12.4 µM (inactive) | 3.45 µM (inactive) | 3.44 µM (inactive) | 1.69 µM (inactive) | 14.3 µM (inactive) | 2.19 µM (inactive) | 1.25 µM (inactive) | 3.87 µM (inactive) | 3.82 µM (inactive) | 5.86 µM (inactive) | 3.15 µM (inactive) | 9.46 µM (inactive) |  |
| Cc1n[nH]c(=S)n(C)c1=S |  | > 100 µM (inactive) | > 100 µM (inactive) |  | > 100 µM (inactive) | > 100 µM (inactive) | > 100 µM (inactive) | > 100 µM (inactive) | > 100 µM (inactive) | > 100 µM (inactive) | > 100 µM (inactive) | > 100 µM (inactive) |  | > 100 µM (inactive) | > 100 µM (inactive) |  |
| CN(C)C(=S)/N=c1\ssc(=S)n1Cc1ccncc1 | 18.9 µM (inactive) | 18.3 µM (inactive) | 24.9 µM (inactive) | 4.79 µM (inactive) | > 100 µM (inactive) | 23.9 µM (inactive) | 1.49 µM (inactive) | 20 µM (inactive) |  | 25.5 µM (inactive) | 29.2 µM (inactive) | 16.5 µM (inactive) | 26.7 µM (inactive) | 10 µM (inactive) | 15.5 µM (inactive) | 6.28 µM (inactive) |
| CC1CC[C@]2(C(=O)O)CCC3(C)C(=CCC4[C@@]5(C)CC[C@H](OS(=O)(=O)c6ccccc6)C(C)(C)C5CC[C@]43C)[C@@H]2[C@H]1C (stereo partly specified) | > 100 µM (inactive) | 27.2 µM (inactive) | > 100 µM (inactive) | > 100 µM (inactive) | 62.2 µM (inactive) | 52.7 µM (inactive) | 53.8 µM (inactive) | > 100 µM (inactive) | 35 µM (inactive) |  | > 100 µM (inactive) | > 100 µM (inactive) | > 100 µM (inactive) | > 100 µM (inactive) | 88.9 µM (inactive) | 36.8 µM (inactive) |
| OC1OCC(COc2cc(Cl)c(Cl)cc2Cl)OC1O (stereo unspecified) | 33.1 µM (inactive) | 18.9 µM (inactive) | 76.7 µM (inactive) | 35.6 µM (inactive) | 41.5 µM (inactive) | 59.2 µM (inactive) | 23.6 µM (inactive) | 31.8 µM (inactive) | 26.7 µM (inactive) |  | 33 µM (inactive) | 19.1 µM (inactive) | 35.9 µM (inactive) | 33 µM (inactive) | 41.9 µM (inactive) |  |
| CC1(C)C(=O)C(=Cc2ccco2)C1=O | > 100 µM (inactive) | > 100 µM (inactive) |  | > 100 µM (inactive) | > 100 µM (inactive) | > 100 µM (inactive) | > 100 µM (inactive) | > 100 µM (inactive) | > 100 µM (inactive) |  |  | > 100 µM (inactive) | > 100 µM (inactive) | > 100 µM (inactive) | > 100 µM (inactive) | > 100 µM (inactive) |
| CCCCc1c2c([n+]([O-])c3c1CCCC3)CCCC2 |  | 65.2 µM (inactive) | > 100 µM (inactive) | > 100 µM (inactive) | > 100 µM (inactive) | > 100 µM (inactive) | 2 µM (inactive) |  | 50.8 µM (inactive) |  | 44.4 µM (inactive) | > 100 µM (inactive) | 40.6 µM (inactive) |  | 61.1 µM (inactive) | 29.6 µM (inactive) |
| O=C(NC1C2CC3CC(C2)CC1C3)/C(Cl)=C1/Sc2ccccc2NC1=O (stereo unspecified) | > 100 µM (inactive) | > 83.6 µM (inactive) | > 100 µM (inactive) | > 62.8 µM (inactive) | > 100 µM (inactive) | > 100 µM (inactive) | > 100 µM (inactive) | > 100 µM (inactive) |  | > 100 µM (inactive) | > 100 µM (inactive) | > 100 µM (inactive) | > 100 µM (inactive) | > 89.5 µM (inactive) | 58.9 µM (inactive) | 44.5 µM (inactive) |
| COc1ccc(N2C(=O)C3CC(c4ccc(Br)cc4)c4c([nH]c5ccccc45)C3C2=O)cc1 (stereo unspecified) | 15.1 µM (inactive) | 6.4 µM (inactive) | 3.91 µM (inactive) | 13.1 µM (inactive) | 18.6 µM (inactive) | 11.4 µM (inactive) |  | 3.25 µM (inactive) | 26.7 µM (inactive) |  | 3.43 µM (inactive) | 5.81 µM (inactive) | 17.3 µM (inactive) | 16.1 µM (inactive) | 11 µM (inactive) |  |
| Cc1cc2nc3c(C(OC4OC(CO)C(O)C(O)C4O)C(O)CO)nn(-c4ccc(F)cc4)c3nc2cc1C (stereo unspecified) |  | > 100 µM (inactive) | > 100 µM (inactive) | > 100 µM (inactive) |  | > 100 µM (inactive) | > 100 µM (inactive) | > 100 µM (inactive) | > 100 µM (inactive) | > 100 µM (inactive) | > 100 µM (inactive) |  | > 100 µM (inactive) | > 100 µM (inactive) | > 100 µM (inactive) | > 100 µM (inactive) |
| CC1=C(c2nc3ccccc3s2)C(=O)OC1(C)C | > 100 µM (inactive) | > 100 µM (inactive) | > 100 µM (inactive) | > 100 µM (inactive) | > 100 µM (inactive) | > 100 µM (inactive) | > 100 µM (inactive) | > 100 µM (inactive) | > 100 µM (inactive) |  | > 100 µM (inactive) | > 100 µM (inactive) | > 100 µM (inactive) | > 100 µM (inactive) | > 100 µM (inactive) | > 100 µM (inactive) |
